This is an account of results in PMC5410965 (ACS infectious diseases, 2016).

For series [1], the system named is Mtb 20S versus human 20S. The following applies: human 20S over Mtb 20S; cited from earlier work.
In series [2] the test system is National Cancer Institute panel of sixty human cancer cell lines. Briefly: National Cancer Institute panel of sixty human cancer cell lines, growth. It counts as cell-based. The note with it: 10 μM; NCI sixty human cancer cell lines.
In series [3] the test system is HepG2 human liver carcinoma cell line. As to the kind of experiment: Toxicity to HepG2 cells. The following applies: concentrations as high as 50 μM.
Series [4] addresses Mtb 20S (Mycobacterium tuberculosis, UniProt P9WHT9). The following applies: second-order rate constant for inhibition; substrate Suc-LLVY-AMC; triplicate.

Sequence of Mtb 20S (P9WHT9 58-291): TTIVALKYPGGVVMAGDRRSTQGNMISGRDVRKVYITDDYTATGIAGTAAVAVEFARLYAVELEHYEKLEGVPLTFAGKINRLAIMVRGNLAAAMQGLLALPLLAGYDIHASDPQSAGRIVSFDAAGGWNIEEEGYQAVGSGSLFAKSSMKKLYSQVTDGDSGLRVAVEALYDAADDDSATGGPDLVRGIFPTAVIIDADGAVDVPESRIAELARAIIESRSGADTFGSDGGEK
Sequence of Mtb 20S (P9WHU1 whole entry partner): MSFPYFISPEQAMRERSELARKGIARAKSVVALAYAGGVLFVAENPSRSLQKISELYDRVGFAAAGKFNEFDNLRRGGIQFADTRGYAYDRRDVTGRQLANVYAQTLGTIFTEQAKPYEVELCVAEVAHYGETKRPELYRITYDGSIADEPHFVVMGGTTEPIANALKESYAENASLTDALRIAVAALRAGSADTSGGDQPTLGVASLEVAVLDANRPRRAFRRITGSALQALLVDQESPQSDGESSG

On to `CC(C)C[C@H](NC(=O)[C@H](Cc1ccccc1)NC(=O)c1cnccn1)B(O)O` [bortezomib], for which the “preference for reversible inhibition of human 20S” value in series [1] was 18 fold.

`COC(=O)[C@@H](NC(=O)N[C@H](C(=O)N[C@H]1CCCCNC(=O)/C=C/[C@H](C(C)C)NC1=O)C(C)C)C(C)C` [Compound 1, syringolin B methyl ester]: the “mean growth compared to untreated (vehicle) controls” value in series [2] came to 27%. In addition, the “toxicity to HepG2 cells” value in series [3] is given as “toxic”. For the same compound, the “Mtb 20S kin/Ki” value in series [4] came out at 4.60 M⁻¹ s⁻¹.
